Measured values published in EP3784230B1, “THE USE OF TERPENIC COUMARINE DERIVATIVE MOLECULES IN THE TREATMENT OF CANCER DISEASE” (T.C. Istanbul Medipol Universitesi, priority 2018, dated 2019).
Where two headings read alike, the source gives them in different places.

Columns and labels:
A498 = assay: Cytotoxic activity (IC50) on cancer cell line A498; format: cell-based; conditions: Homo sapiens, read-out: Cytotoxic Activity ( IC 50 )
Description: (§1) The inventors have determined the cytotoxic activity (IC 50 values) of the compounds according to the invention together with various agents present in the prior art on cell lines of different types of cancer.

KM12 = assay: Cytotoxic activity (IC50) on cancer cell line KM12; format: cell-based; conditions: Homo sapiens, read-out: Cytotoxic Activity ( IC 50 )
Description: as §1

TC32 = assay: Cytotoxic activity (IC50) on cancer cell line TC32; format: cell-based; conditions: Homo sapiens, TC-32, read-out: Cytotoxic Activity ( IC 50 )
Description: as §1

A673 = assay: Cytotoxic activity (IC50) on cancer cell line A673; format: cell-based; conditions: Homo sapiens, read-out: Cytotoxic Activity ( IC 50 )
Description: as §1

UO31 cell line [1] = assay: Cytotoxic activity (IC50) on kidney cancer cell line UO31; format: cell-based; conditions: Homo sapiens, UO-31; U031 (kidney cancer cell line); read-out: Cytotoxic Activity ( IC 50 )
Description: as §1
The UO31 cell line is known to be the kidney cancer cell line. Taxol, vinblastine and vincristine anti-cancer agents are used against the kidney cancer in the state of the art.

COLO205 = assay: Cytotoxic activity (IC50) on cancer cell line COLO205; format: cell-based; conditions: Homo sapiens, COLO 205, read-out: Cytotoxic Activity ( IC 50 )
Description: as §1

UO31 cell line [2] = conditions: Ferguson R.E. et al., Int. J. Cancer 2005, 115, 155-163, read-out: IC 50 value; cited from earlier work

Row | Compound | IC50 (A498) [µM] | IC50 (KM12) [µM] | IC50 (TC32) [µM] | IC50 (A673) [µM] | IC50 (UO31 cell line [1]) [µM] | IC50 (COLO205) [µM] | IC50 (UO31 cell line [2]) [µM]
1 | C=C1CC[C@@H]2[C@](C)(COC(C)=O)[C@@H](O)CC[C@@]2(C)[C@@H]1COc1ccc2ccc(=O)oc2c1 [EXAMPLE MOLECULE III] | > 50 | > 50 | > 50 | > 50 | 0.017 | > 50 | –
2 | C=C1CC[C@@H]2C(C)(C)[C@@H](O)CC[C@@]2(C)[C@@H]1COc1ccc2ccc(=O)oc2c1 [EXAMPLE MOLECULE II] | 20 | 9.1 | > 50 | > 50 | 0.38 | > 50 | –
3 | C=C1CC[C@@H]2[C@](C)(COC(C)=O)[C@H](O)CC[C@@]2(C)[C@@H]1COc1ccc2ccc(=O)oc2c1 [EXAMPLE MOLECULE IV] | > 50 | > 50 | > 50 | > 50 | 0.37 | > 50 | –
4 | C=C1CC[C@@H]2C(C)(C)[C@H](O)CC[C@@]2(C)[C@@H]1COc1ccc2ccc(=O)oc2c1 [EXAMPLE MOLECULE I] | 21 | 2.5 | 45 | > 50 | 0.75 | 19 | –
5 | C=C1CC[C@@H]2[C@](C)(C=O)[C@@H](O)CC[C@@]2(C)[C@@H]1COc1ccc2ccc(=O)oc2c1 [EXAMPLE MOLECULE V] | > 50 | > 50 | > 50 | > 50 | 0.024 | > 50 | –
6 | C=C1CC[C@@H]2C(C)(C)C(=O)CC[C@@]2(C)[C@@H]1COc1ccc2ccc(=O)oc2c1 [REFERENCE MOLECULE III] | > 50 | > 50 | > 50 | > 50 | 11 | > 50 | –
7 | C/C(=C\COc1ccc2ccc(=O)oc2c1)CC/C=C(\C)CCC(O)C(C)(C)O (stereo not drawn) [REFERENCE MOLECULE II] | > 50 | > 50 | > 50 | > 50 | 7.6 | > 50 | –
8 | C=C1CC[C@H]2[C@@](C)(CCC(=O)[C@@]2(C)COC(C)=O)[C@@H]1COc1ccc2ccc(=O)oc2c1 [REFERENCE MOLECULE IV] | > 50 | > 50 | > 50 | > 50 | > 50 | > 50 | –
9 | CC(C)=CCC/C(C)=C/CC/C(C)=C/COc1ccc2ccc(=O)oc2c1 [REFERENCE MOLECULE I] | > 50 | > 50 | > 50 | > 50 | 1.8 | > 50 | –
10 | C=C1CC[C@@H]2[C@](C)(CO)[C@H](O)CC[C@@]2(C)[C@@H]1COc1ccc2ccc(=O)oc2c1 [REFERENCE MOLECULE V] | > 50 | > 50 | > 50 | > 50 | > 50 | > 50 | –
11 | CC(=O)O[C@H]1C(=O)[C@@]2(C)[C@H]([C@H](OC(=O)c3ccccc3)[C@]3(O)C[C@H](OC(=O)[C@H](O)[C@@H](NC(=O)c4ccccc4)c4ccccc4)C(C)=C1C3(C)C)[C@]1(OC(C)=O)CO[C@@H]1C[C@@H]2O [taxol] | – | – | – | – | – | – | > 50
12 | CC[C@]1(O)C[C@@H]2CN(CCc3c([nH]c4ccccc34)[C@@](C(=O)OC)(c3cc4c(cc3OC)N(C)[C@H]3[C@@](O)(C(=O)OC)[C@H](OC(C)=O)[C@]5(CC)C=CCN6CC[C@]43[C@@H]65)C2)C1 [vinblastine] | – | – | – | – | – | – | > 100
13 | CC[C@]1(O)C[C@H]2CN(CCc3c([nH]c4ccccc34)[C@@](C(=O)OC)(c3cc4c(cc3OC)N(C=O)[C@H]3[C@@](O)(C(=O)OC)[C@H](OC(C)=O)[C@]5(CC)C=CCN6CC[C@]43[C@@H]65)C2)C1 [vincristine] | – | – | – | – | – | – | > 100
